According to patent publication US11103474B2, “Pharmaceutical parenteral formulation containing carglumic acid” (RECORDATI INDUSTRIA CHIMICA E FARMACEUTICA S.P.A., priority 2016, dated 2021):

Assay: Preliminary solubility trials (stability of carglumic acid solutions with NaOH, phosphate or HCl)
Assay type: physicochemical
Excerpt: Preliminary solubility trials have been performed using carglumic acid solutions buffered at pH from 5.0 to 5.7 with NaOH (0.5 M) or phosphate; the test were not successful since the solutions were not stable and gave an unknown degradation product (with molecular ion at 159 [m+H]+ detected in HPLC-mass-spectrometry) not present in the solution of carglumic acid in water.

stability of solution (buffered at pH from 5.0 to 5.7 with NaOH (0.5 M) or phosphate, unknown degradation product formed): not stable
stability of solution (in HCl 0.5 M, up to 24 hours, two known impurities above the accepted limits): did not result stable
Compound: NC(=O)N[C@@H](CCC(=O)O)C(=O)O [carglumic acid, Carglumic acid]
